pEC50, pIC50: −log10 of the molar value. Values after ≈ are worked out from the molar mass of the structure shown. Active and inactive are the calls of the source. The calls are words filed in the database; no cut-off is given here.
Assays:
NCI-H1373 = test: Antitumor activity against human NCI-H1373 cells harboring KRAS G12C/KRAS G12C mutant xenografted in female BALB/c nude mouse assessed as tumor regression at 25 mg/kg, po administered once daily for 28 days; format: functional, organism-based; details: time 28.0 day
[1] = Half-life in male cynomolgus monkey at 1 mg/kg, iv measured after 24 hrs by LC-MS/MS analysis; format: ADME, organism-based, Macaca fascicularis; details: in vivo
NCI-H1975 = test: Inhibition of ERK1/2 phosphorylation in human NCI-H1975 cells harboring wildtype KRAS incubated for 4 hrs by AlphaLISA assay; format: cell-based
NCI-H441 = test: Inhibition of ERK1/2 phosphorylation in human NCI-H441 cells harboring KRAS G12V mutant incubated for 4 hrs by AlphaLISA assay; format: cell-based
[2] = Ratio of drug concentration in mouse blood to plasma at 10 uM measured upto 120 mins by LC-MS/MS analysis; format: ADME, cell-free
[3] = Kinetic solubility of compound in PBS at pH 5.0 measured after 5 hrs by UV analysis; format: physicochemical; details: read-out: Kinetic_solubility
[4] = target: Sodium channel protein type 5 subunit alpha (Homo sapiens, UniProt Q14524); test: Inhibition of human Nav1.5; format: toxicity
Sequence of Sodium channel protein type 5 subunit alpha (Q14524 whole entry): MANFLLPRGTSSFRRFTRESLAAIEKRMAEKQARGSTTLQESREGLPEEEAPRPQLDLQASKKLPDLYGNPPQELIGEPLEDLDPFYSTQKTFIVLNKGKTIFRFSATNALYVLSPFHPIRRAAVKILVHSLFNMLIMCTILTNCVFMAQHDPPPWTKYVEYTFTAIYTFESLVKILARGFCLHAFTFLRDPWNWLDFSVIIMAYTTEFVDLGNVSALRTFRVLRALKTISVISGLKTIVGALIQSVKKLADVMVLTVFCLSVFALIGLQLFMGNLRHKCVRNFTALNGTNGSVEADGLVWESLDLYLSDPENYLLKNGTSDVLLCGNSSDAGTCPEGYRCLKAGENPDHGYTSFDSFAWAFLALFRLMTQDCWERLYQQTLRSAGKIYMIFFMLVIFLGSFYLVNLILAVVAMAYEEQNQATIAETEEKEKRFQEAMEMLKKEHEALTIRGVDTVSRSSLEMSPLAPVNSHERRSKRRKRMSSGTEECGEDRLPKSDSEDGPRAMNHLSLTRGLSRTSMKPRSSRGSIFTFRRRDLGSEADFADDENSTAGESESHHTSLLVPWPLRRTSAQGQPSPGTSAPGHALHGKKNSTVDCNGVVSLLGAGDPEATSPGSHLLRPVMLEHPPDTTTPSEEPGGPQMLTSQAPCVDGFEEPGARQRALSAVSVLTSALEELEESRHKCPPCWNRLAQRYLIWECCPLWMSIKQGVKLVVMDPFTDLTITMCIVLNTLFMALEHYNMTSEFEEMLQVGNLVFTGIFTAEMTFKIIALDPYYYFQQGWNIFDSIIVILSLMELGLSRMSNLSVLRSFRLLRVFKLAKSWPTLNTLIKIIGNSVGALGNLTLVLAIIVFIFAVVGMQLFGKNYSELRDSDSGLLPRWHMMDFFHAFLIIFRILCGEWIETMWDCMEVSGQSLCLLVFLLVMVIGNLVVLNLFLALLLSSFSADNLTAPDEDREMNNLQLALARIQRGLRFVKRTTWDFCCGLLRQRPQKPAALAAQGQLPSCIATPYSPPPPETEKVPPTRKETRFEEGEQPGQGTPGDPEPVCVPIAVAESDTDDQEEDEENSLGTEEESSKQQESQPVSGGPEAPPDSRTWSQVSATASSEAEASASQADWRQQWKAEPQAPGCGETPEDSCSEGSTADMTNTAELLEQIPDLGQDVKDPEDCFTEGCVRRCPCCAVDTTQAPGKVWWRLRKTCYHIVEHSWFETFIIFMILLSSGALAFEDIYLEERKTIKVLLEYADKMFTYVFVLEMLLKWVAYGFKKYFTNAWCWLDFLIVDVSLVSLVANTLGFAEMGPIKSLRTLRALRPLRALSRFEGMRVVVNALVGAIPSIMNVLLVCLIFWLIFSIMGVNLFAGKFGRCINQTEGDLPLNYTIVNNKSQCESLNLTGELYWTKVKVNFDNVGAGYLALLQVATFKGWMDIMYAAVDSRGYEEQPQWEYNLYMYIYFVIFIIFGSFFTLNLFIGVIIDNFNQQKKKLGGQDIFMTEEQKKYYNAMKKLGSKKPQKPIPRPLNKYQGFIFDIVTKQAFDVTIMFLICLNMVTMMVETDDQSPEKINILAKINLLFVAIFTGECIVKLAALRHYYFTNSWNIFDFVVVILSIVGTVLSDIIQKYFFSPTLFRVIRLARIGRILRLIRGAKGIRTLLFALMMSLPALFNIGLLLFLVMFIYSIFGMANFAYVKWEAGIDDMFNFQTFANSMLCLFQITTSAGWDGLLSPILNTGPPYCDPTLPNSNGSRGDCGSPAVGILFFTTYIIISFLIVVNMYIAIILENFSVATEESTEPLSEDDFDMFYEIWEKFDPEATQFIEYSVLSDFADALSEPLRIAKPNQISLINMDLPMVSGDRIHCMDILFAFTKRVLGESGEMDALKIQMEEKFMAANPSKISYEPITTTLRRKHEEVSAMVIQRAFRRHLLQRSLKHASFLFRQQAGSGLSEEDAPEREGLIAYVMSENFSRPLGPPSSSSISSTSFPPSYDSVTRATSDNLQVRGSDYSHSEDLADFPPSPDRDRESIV

ASPC1 = test: Cytotoxicity against human ASPC1 cells harboring KRAS G12D mutant cultured as 2D cells assessed as reduction in cell viability incubated for 120 hrs by CellTiter-Glo luminescence assay; format: functional, cell-based; details: ASPC1, 120 h
PSN1 = test: Inhibition of ERK1/2 phosphorylation in human PSN1 cells harboring KRAS G12R mutant incubated for 4 hrs by AlphaLISA assay; format: cell-based
[5] = Volume of distribution at steady state in female BALB/c mouse at 1 mg/kg, iv measured after 24 hrs by LC-MS/MS analysis; format: ADME, organism-based; details: in vivo, read-out: Vdss
[6] = Efflux ratio of apparent permeability in human Caco-2 cells at 5 uM incubated for 2 hrs by LC-MS/MS analysis; format: ADME, cell-based
MIA PaCa-2 = test: Antitumor activity against human MIA PaCa-2 cells harboring KRAS G12C/G12C mutant xenografted in female BALB/c mouse model assessed as reduction in tumor volume administered orally as once daily dose for 28 days; format: functional, cell-based; details: dose 3-25 mg/kg, route po, time 28.0 day
[7] = Kinetic solubility of compound in PBS at pH 7.4 measured after 5 hrs by UV analysis; format: physicochemical; details: read-out: Kinetic_solubility
HPAF-II = test: Antitumor activity against human HPAF-II cells harboring wildtype KRAS/KRAS G12D mutant xenografted in female BALB/c mouse model assessed as tumor regression at 25 mg/kg, po administered once daily for 28 days; format: functional, organism-based; details: time 28.0 day
HCT-116 = test: Inhibition of ERK1/2 phosphorylation in human HCT-116 cells harboring KRAS G13D mutant incubated for 4 hrs by AlphaLISA assay; format: cell-based
[8] = Volume of distribution at steady state in male Beagle dog at 1 mg/kg, iv measured after 24 hrs by LC-MS/MS analysis; format: ADME, organism-based, Canis lupus familiaris; details: in vivo, read-out: Vdss
[9] = Half-life in male Sprague-Dawley rat at 60 mg/kg, po measured after 24 hrs by LC-MS/MS analysis; format: ADME, organism-based; details: in vivo
[10] = Oral bioavailability in female BALB/c mouse plasma at 10 mg/kg measured after 24 hrs by LC-MS/MS analysis; format: ADME, organism-based
[11] = Oral bioavailability in male cynomolgus monkey at 10 mg/kg measured after 24 hrs by LC-MS/MS analysis; format: ADME, organism-based, Macaca fascicularis; details: in vivo
[12] = In vivo inhibition of MAPK signaling pathway in female BALB/c nude mouse xenografted with human MIA PaCa-2 cells harboring KRAS G12C/G12C mutant assessed as reduction in DUSP6 mRNA level in tumor at 3 mg/kg, po administered as single dose and measured after 8 hrs by qPCR analysis relative to control; format: functional
[13] = Half-life in female BALB/c mouse at 10 mg/kg, po measured after 24 hrs by LC-MS/MS analysis; format: ADME, organism-based; details: in vivo
[14] = Volume of distribution at steady state in male Sprague-Dawley rat at 1 mg/kg, iv measured after 24 hrs by LC-MS/MS analysis; format: ADME, organism-based; details: in vivo, read-out: Vdss
[15] = Clearance in male Sprague-Dawley rat at 1 mg/kg, iv measured after 24 hrs by LC-MS/MS analysis; format: ADME, organism-based; details: in vivo
Hs 766 = test: Cytotoxicity against human Hs766T cells harboring KRAS Q61H mutant cultured as 2D cells assessed as inhibition of cell proliferation incubated for 120 hrs by CellTiter-Glo luminescence assay; format: functional, cell-based
[16] = Clearance in female BALB/c mouse plasma at 1 mg/kg, iv measured after 24 hrs by LC-MS/MS analysis; format: ADME, organism-based
[17] = Inhibition of 6His-tagged KRAS G12D mutant(1 to 169 residues)/GST-tagged GMPPNP-bound BRAF RBD (155 to 229 reisudes)/Cyclophilin A (unknown origin) tri-complex protein-protein interaction incubated for 3 hrs by TR-FERT based disruption assay; design: species or system Homo sapiens
[18] = Toxicity in female BALB/c nude mouse xenografted with human MIA PaCa-2 cells harboring KRAS G12C/G12C mutant assessed as effect on body weight at 25 mg/kg, po administered once daily for 28 days; format: organism-based; details: in vivo, 672 h, time 28 day
[19] = Mutagenicity in Salmonella typhimurium by Ames test; format: toxicity; details: salmonella enterica subsp. enterica serovar typhimurium
[20] = In vivo inhibition of MAPK signaling pathway in female BALB/c nude mouse xenografted with human MIA PaCa-2 cells harboring KRAS G12C/G12C mutant assessed as reduction in DUSP6 mRNA level in tumor at 10 mg/kg, po administered as single dose and measured after 8 hrs by qPCR analysis relative to control; format: functional
Hs766T = test: Inhibition of ERK1/2 phosphorylation in human Hs766T cells harboring […] mutant incubated for 4 hrs by AlphaLISA assay; format: cell-based
[21] = Inhibition of 6His-tagged KRAS G12V mutant(1 to 169 residues)/GST-tagged GMPPNP-bound BRAF RBD (155 to 229 reisudes)/Cyclophilin A (unknown origin) tri-complex protein-protein interaction incubated for 3 hrs by TR-FERT based disruption assay; design: species or system Homo sapiens
[22] = Volume of distribution at steady state in male cynomolgus monkey at 1 mg/kg, iv measured after 24 hrs by LC-MS/MS analysis; format: ADME, organism-based, Macaca fascicularis; details: in vivo, read-out: Vdss
[23] = Inhibition of 6His-tagged wildtype KRAS (1 to 169 residues)/GST-tagged GMPPNP-bound BRAF RBD (155 to 229 reisudes)/Cyclophilin A (unknown origin) tri-complex protein-protein interaction incubated for 3 hrs by TR-FERT based disruption assay; design: species or system Homo sapiens
[24] = Tmax in male Beagle dog at 5 mg/kg, po measured after 24 hrs by LC-MS/MS analysis; format: ADME, organism-based, Canis lupus familiaris; details: in vivo
[25] = Half-life in male cynomolgus monkey at 10 mg/kg, po measured after 24 hrs by LC-MS/MS analysis; format: ADME, organism-based, Macaca fascicularis; details: in vivo
[26] = Oral bioavailability in female BALB/c mouse blood at 10 mg/kg measured after 24 hrs by LC-MS/MS analysis; format: ADME, organism-based
[27] = Half-life in female BALB/c mouse at 1 mg/kg, iv measured after 24 hrs by LC-MS/MS analysis; format: ADME, organism-based; details: in vivo

## CCn1c(-c2cc(N3CCN(C)CC3)cnc2[C@H](C)OC)c2c3cc(ccc31)-c1csc(n1)C[C@H](NC(=O)[C@H]1C[C@@H]1C)C(=O)N1CCC[C@H](N1)C(=O)OCC(C)(C)C2
NCI-H1373
  Activity: Active
[1]
  half-life: 6.2 h
NCI-H1975
  inhibition: Active
NCI-H441
  inhibition: Active
[2]
  blood plasma ratio at 2 h, 10 µM: 1.1
[3]
  solubility kinetic at 5 h: > 100 µM
[4]
  pIC50: < 4.52
ASPC1
  pEC50: 8.51
PSN1
  inhibition: Active
[5]
  Vd: 1.3 L/kg
[6]
  efflux ratio at 2 h, 5 µM: 21
MIA PaCa-2
  Activity: Dose-dependent-effect
[7]
  solubility kinetic at 5 h: 71 µM (≈ 57.6 µg/mL)
HPAF-II
  Activity: Active
HCT-116
  inhibition: Active
[8]
  Vd: 2.1 L/kg
[9]
  half-life: 2.8 h
[10]
  bioavailability: 52%
[11]
  bioavailability: 24%
[12]
  inhibition in vivo at 3 mg/kg: 93%
[13]
  half-life: 2.4 h
[14]
  Vd: 1.9 L/kg
[15]
  clearance: 1.3 L/h/kg
Hs 766
  Activity: Active
[16]
  clearance: 2.4 L/h/kg
[17]
  pIC50: 6.64
[18]
  Activity: Non-toxic
[19]
  Activity: Non-toxic
[20]
  inhibition in vivo at 10 mg/kg: 95%
Hs766T
  inhibition: Active
[21]
  pIC50: 7.32
[22]
  Vd: 2.9 L/kg
[23]
  pIC50: 7.04
[24]
  Tmax: 0.7 h
[25]
  half-life: 4.6 h
[26]
  bioavailability: 33%
[27]
  half-life: 2.2 h

From ChEMBL document CHEMBL6115029, “Discovery of Daraxonrasib (RMC-6236), a Potent and Orally Bioavailable RAS(ON) Multi-selective, Noncovalent Tri-complex Inhibitor for the Treatment of Patients with Multiple RAS-Addicted Cancers” (J Med Chem, 2025)
